tested on: GBM-1 neoplastic organoids including firefly luciferase; assay: Luciferase assay-based drug testing on neoplastic organoids; format: cell-based, human; details: 1 μM, forty days after drug treatment, vs DMSO
Procedure: FIG. 13. […] Normalized luciferase activity was presented. Statistical analysis of quantifications was performed using one-way ANOVA with Dunnett's test. **, p<0.01.
For drug testing, neoplastic organoids were first grown for 2 months, followed by drug treatment for 40 days. […] After drug treatment, neoplastic organoids were trypsinized for single cell preparation, followed by FACS sorting analysis. Total cell numbers were counted to evaluate the cytotoxicity of the drugs.
In an effort toward adapting this method for large scale screening, we modified the neoplastic cerebral organoid system to include firefly luciferase for measurement of tumor size (FIG. 13a).

| Compound | relative firefly luciferase activity (tumor size) |
| --- | --- |
| C=CC(=O)Nc1cc2c(Nc3ccc(F)c(Cl)c3)ncnc2cc1OCCCN1CCOCC1 [Canertibib, Canertinib] | only non-significant effects |
| C#Cc1cccc(Nc2ncnc3cc(OCCOC)c(OCCOC)cc23)c1 [Erlotinib] | significantly reduced firefly luciferase activity |
| COc1cc2ncnc(Nc3ccc(F)c(Cl)c3)c2cc1OCCCN1CCOCC1 [Gefitinib] | only non-significant effects |
| CCOc1cc2ncc(C#N)c(Nc3ccc(F)c(Cl)c3)c2cc1NC(=O)/C=C/CN(C)C [Pelitinib] | only non-significant effects |

Source: US20200308550A1, “TUMOR ORGANOID MODEL” (IMBA - INSTITUT FÜR MOLEKULARE BIOTECHNOLOGIE GMBH, priority 2017, published 2020)
